Experiment: excess molar enthalpy (molar enthalpy of mixing); xn = mol fraction of the nth substance listed
Conditions: 298.15 K, 101 kPa, Liquid, Calvet calorimetry

CCCCCCCC[n+]1ccn(C)c1.F[B-](F)(F)F [1-methyl-3-octylimidazolium tetrafluoroborate] + CC(C)O
Conditions	excess molar enthalpy [kcal/mol]
x1 = 0.139	0.337
x1 = 0.142	0.342
x1 = 0.144	0.348
x1 = 0.148	0.354
x1 = 0.151	0.36
x1 = 0.154	0.366
x1 = 0.158	0.373
x1 = 0.162	0.379
x1 = 0.165	0.386
x1 = 0.17	0.392
x1 = 0.173	0.397
x1 = 0.176	0.402
x1 = 0.179	0.406
x1 = 0.183	0.412
x1 = 0.186	0.417
x1 = 0.19	0.422
x1 = 0.194	0.428
x1 = 0.198	0.433
x1 = 0.202	0.439
x1 = 0.207	0.445
x1 = 0.212	0.452
x1 = 0.216	0.459
x1 = 0.221	0.467
x1 = 0.227	0.475
x1 = 0.232	0.484
x1 = 0.238	0.493
x1 = 0.244	0.502
x1 = 0.251	0.511
x1 = 0.258	0.528
x1 = 0.265	0.54
x1 = 0.273	0.552
x1 = 0.281	0.565
x1 = 0.29	0.578
x1 = 0.295	0.587
x1 = 0.301	0.597
x1 = 0.307	0.606
x1 = 0.314	0.614
x1 = 0.32	0.624
x1 = 0.327	0.633
x1 = 0.335	0.641
x1 = 0.342	0.65
x1 = 0.35	0.658
x1 = 0.359	0.665
x1 = 0.367	0.672
x1 = 0.377	0.677
x1 = 0.386	0.681
x1 = 0.396	0.683
x1 = 0.407	0.684
x1 = 0.418	0.683
x1 = 0.43	0.682
x1 = 0.443	0.68
x1 = 0.456	0.677
x1 = 0.471	0.672
x1 = 0.486	0.666
x1 = 0.502	0.659
x1 = 0.519	0.65
x1 = 0.538	0.638
x1 = 0.558	0.625
x1 = 0.566	0.619
x1 = 0.575	0.612
x1 = 0.584	0.604
x1 = 0.593	0.596
x1 = 0.602	0.587
x1 = 0.612	0.578
x1 = 0.622	0.567
x1 = 0.632	0.557
x1 = 0.643	0.545
x1 = 0.654	0.533
x1 = 0.666	0.52
x1 = 0.678	0.506
x1 = 0.69	0.491
x1 = 0.703	0.476
x1 = 0.716	0.459
x1 = 0.73	0.441
x1 = 0.744	0.421
x1 = 0.759	0.401
x1 = 0.775	0.378
x1 = 0.791	0.354
x1 = 0.808	0.329
x1 = 0.825	0.301
x1 = 0.844	0.273
x1 = 0.863	0.241
x1 = 0.883	0.208
x1 = 0.904	0.171
x1 = 0.927	0.134
x1 = 0.95	0.0913
x1 = 0.974	0.048

CCCCCCCC[n+]1ccn(C)c1.F[B-](F)(F)F [1-methyl-3-octylimidazolium tetrafluoroborate] + CCCCCO
Conditions	excess molar enthalpy [kcal/mol]
x1 = 0.213	0.35
x1 = 0.218	0.358
x1 = 0.223	0.365
x1 = 0.229	0.373
x1 = 0.234	0.38
x1 = 0.24	0.388
x1 = 0.244	0.393
x1 = 0.249	0.398
x1 = 0.254	0.404
x1 = 0.259	0.41
x1 = 0.264	0.416
x1 = 0.269	0.423
x1 = 0.275	0.429
x1 = 0.281	0.435
x1 = 0.287	0.443
x1 = 0.293	0.45
x1 = 0.3	0.457
x1 = 0.306	0.464
x1 = 0.314	0.472
x1 = 0.321	0.481
x1 = 0.329	0.49
x1 = 0.338	0.5
x1 = 0.346	0.51
x1 = 0.356	0.52
x1 = 0.365	0.53
x1 = 0.372	0.537
x1 = 0.378	0.544
x1 = 0.385	0.552
x1 = 0.392	0.559
x1 = 0.4	0.567
x1 = 0.407	0.574
x1 = 0.415	0.581
x1 = 0.424	0.588
x1 = 0.432	0.595
x1 = 0.441	0.6
x1 = 0.451	0.604
x1 = 0.46	0.607
x1 = 0.471	0.608
x1 = 0.481	0.606
x1 = 0.492	0.604
x1 = 0.504	0.601
x1 = 0.516	0.597
x1 = 0.529	0.592
x1 = 0.542	0.586
x1 = 0.557	0.578
x1 = 0.572	0.568
x1 = 0.587	0.558
x1 = 0.604	0.546
x1 = 0.622	0.532
x1 = 0.64	0.516
x1 = 0.648	0.508
x1 = 0.656	0.501
x1 = 0.664	0.492
x1 = 0.673	0.484
x1 = 0.681	0.475
x1 = 0.69	0.465
x1 = 0.699	0.455
x1 = 0.708	0.444
x1 = 0.718	0.433
x1 = 0.728	0.421
x1 = 0.738	0.408
x1 = 0.748	0.396
x1 = 0.759	0.382
x1 = 0.77	0.367
x1 = 0.781	0.352
x1 = 0.792	0.336
x1 = 0.804	0.319
x1 = 0.817	0.301
x1 = 0.829	0.283
x1 = 0.842	0.263
x1 = 0.856	0.242
x1 = 0.87	0.22
x1 = 0.884	0.197
x1 = 0.899	0.173
x1 = 0.914	0.148
x1 = 0.93	0.12
x1 = 0.947	0.0927
x1 = 0.964	0.0626
x1 = 0.982	0.032

Source: the NIST ThermoML archive (doi:10.1021/je400709f)
